Data as given in article PMC4445981, “The glutamate transport inhibitor DL-Threo-β-Benzyloxyaspartic acid (DL-TBOA) differentially affects SN38- and oxaliplatin-induced death of drug-resistant colorectal cancer cells” (BMC Cancer, 2015).

Tests used:
Assay type in all cases: cell-based, human
[1] = tested on: parental and drug-resistant HCT116 and LoVo cell lines; assay: MTT viability assay, HCT116 and LoVo cell lines; conditions: Homo sapiens; parental HCT116 and LoVo; 48 h; 0.8 μM SN38 (highest dose tested); read-out: viable cells remaining
Protocol: Fig. 2 DL-TBOA augments SN38-induced death in SN38-resistant cells, but protects oxaliplatin-resistant cells from oxaliplatin-induced death. Parental and drug-resistant HCT116 and LoVo cell lines seeded in 96-well dishes were exposed to SN38 (0.1 or 0.8 μM) or oxaliplatin (0.8 or 20 μM), alone or in combination with 70 or 350 μM DL-TBOA as indicated, for 48 h. Viability was assessed by MTT assay. a-b Parental HCT116 cells, (c) SN38 resistant HCT116 cells, (d) Oxaliplatin-resistant HCT116 cells, (e-f) Parental LoVo cells, (g) SN38 resistant LoVo cells, (h) Oxaliplatin-resistant LoVo cells. Data are means with S.E.M. error bars of 3 independent experiments. *) p < 0.05, **) p < 0.01, ***) p < 0.001 compared to the control group without drug or TBOA treatment; #) p < 0.05 compared to controls without TBOA treatment. One-way ANOVA followed by Dunnett post-test
Cells were seeded at appropriate density (LoVo 10,000, and HCT116 5000 cells /100 μl) in growth medium in 96-well plates. Next day, cells were treated with inhibitors and/or chemotherapy in a total volume of 200 μl in growth medium and incubated for 48 h at 37 °C, 5 % CO2. The medium was replaced with 100 μl of 0.5 mg/ml 3-(4,5-dimethylthiazol-2-yl)-2,5-diphenyltetrazolium bromide (MTT) in growth medium. The reaction was stopped 1.5-2.5 h later by addition of 100 μl 20 % SDS in 0.02 M HCl, and incubation overnight to allow complete lysis of cells and formazan crystals. Absorbance was measured in an ELISA plate reader (Thermo Scientific MultiScan FC) at 550 nm. Data were background subtracted and % viability relative to controls calculated.

[2] = tested on: cellular reduced glutathione (GSH); assay: Cellular GSH level; conditions: parental HCT116 cells; 24 h; 0.8 μM SN38 or 20 μM oxaliplatin
Protocol: Fig. 4 Effect of glutamate transporter inhibition on cellular GSH levels. a Basal intracellular GSH levels were measured as described in Materials and Methods, and normalized to total protein in the samples. b-c Normalized basal GSH levels under control conditions, in HCT116 and LoVo parental and resistant cells after 24 h of treatment with 0.8 μM SN38 or 20 μM oxaliplatin, in absence or presence of DL-TBOA (350 μM) as shown. * p < 0.05 vs untreated control group (n = 5). One-way ANOVA followed by Dunnett post-test
Cells were seeded in 24-well plates (10^4 cells per well), treated the next day with chemotherapy and/or DL-TBOA and incubated for 24 h. Medium was removed and cells were washed twice with ice-cold PBS, which was removed and 500 μl ice-cold 1 % Sulfosalicylic acid was added per well. Cells were incubated on ice for at least 10 min. After centrifugation (1 min, 15,000 g), 10 μl lysate was used to determine total GSx content. To measure GSSG content, 130 μl sample was mixed with 55 μl 0.2 M Tris (pH 9) and 5 μl 2-Vinylpyridine. Tubes were vortexed carefully and incubated for at least 1 h at room temperature. 10 μl of this mix was mixed first with 90 μl of water in a 96-well plate and then with a reaction mix (0.1 M sodium phosphate buffer pH 7.5 containing 1 mM EDTA, 10 mM NADPH, 10 mM DTNB and 0.05 μl Glutathione reductase, 2U/μl). Measurements were taken every 30 s for 10 min in an ELISA plate reader (Thermo Scientific MultiScan FC) at 405 nm absorbance. GSH values were obtained by subtraction of GSSG values from GSx values.

[3] = tested on: p53; assay: p53 protein level by Western blotting; conditions: 24 h
Protocol: Fig. 5 Effects of DL-TBOA on cell death and survival parameters after chemotherapy treatment. Parental and drug-resistant HCT116 (a) and LoVo (b) cell lines were exposed to SN38 (0.8 μM) or oxaliplatin (20 μM), alone or in combination with 350 μM DL-TBOA as indicated, for 24 h. Equal amounts of protein per lane were separated by SDS-PAGE and the protein level of p53 was determined by Western blotting. Top: Representative Western blots, with p150 as loading control. Bottom: Densitometric quantifications based on 3 independent experiments per condition. Data are means with S.E.M. error bars of 3 independent experiments. *) p < 0.05, **) p < 0.01, ***) p < 0.001,****) p < 0.0001 compared to the control group without drug or TBOA treatment; Two-way ANOVA with Tukey post-test
(§1) Cells were grown to a confluence of 60-80 % and treated with chemotherapy, siRNA- or plasmid transfection as indicated. Cells were washed once in PBS, lysed in lysis buffer (1 % SDS, 0.1 M Tris pH 7.5, and 1 mM Na3VO4), sonicated, and protein content determined (DC assay, BioRad). Lysates were mixed 2:1with NuPage LDS sample buffer (Invitrogen). SDS-PAGE was carried out in NOVEX chambers with NuPAGE 10 % Bis-Tris gels under reducing and denaturing conditions, using BenchMark protein ladder (Invitrogen), and 15 μg protein per lane. Proteins were transferred to PVDF membranes, which were Ponceau S stained, blocked for 1 h at 37 °C in 5 % nonfat dry milk in TBST (0.01 M Tris/HCl, 0.15 M NaCl, 0.1 % Tween 20, pH 7.4), incubated overnight at 4 °C with primary antibodies diluted in blocking buffer, washed in TBST, incubated with secondary antibodies for 1 h, washed in TBST, and developed using BCIP/NBT (KPL). Bands were scanned and quantified using UN-SCAN-IT (Silk Scientific).

[4] = tested on: p21^WAF1/Cip (p21); assay: p21 protein level by Western blotting; conditions: 24 h
Protocol: as §1
Supplementary file 12885_2015_1405_MOESM3_ESM.tiff: Additional file 3: Figure S3. Effects of DL-TBOA on cell death and survival parameters after chemotherapy treatment of HCT116 cells. Parental and drug-resistant HCT116 cell lines seeded in 6-well dishes were exposed to SN38 (0.8 μM) or oxaliplatin (20 μM), alone or in combination with 350 μM DL-TBOA as indicated, for 24 h. Equal amounts of protein per lane were separated by SDS-PAGE and the protein levels of p21, and PARP-1 (full-length and cleaved, the latter indicated by arrowheads) were determined by Western blotting. Top: Representative Western blots, with p150 as loading control. Bottom: Densitometric quantifications based on 3 independent experiments per condition. Data are means with S.E.M. error bars of 3 independent experiments. *) p < 0.05, **) p < 0.01, ***) p < 0.001,****) p < 0.0001 compared to the control group without drug or TBOA treatment; #) p < 0.05 compared to controls without TBOA treatment. Two-way ANOVA with Tukey post-test.

[5] = tested on: PARP-1 cleavage; assay: PARP-1 cleavage by Western blotting; conditions: HCT116 parental, oxaliplatin-resistant and SN38-resistant cells; 0.8 μM SN38, 24 h
Protocol: as §1
Supplementary file 12885_2015_1405_MOESM3_ESM.tiff: Additional file 3: Figure S3. […] Equal amounts of protein per lane were separated by SDS-PAGE and the protein levels of p21, and PARP-1 (full-length and cleaved, the latter indicated by arrowheads) were determined by Western blotting. […] Bottom: Densitometric quantifications based on 3 independent experiments per condition. […]

[6] = tested on: SLC1A1 localization in HCT116 cells; assay: Immunofluorescence analysis of SLC1A1 subcellular localization; conditions: parental HCT116 cells; 48 h; 0.8 μM SN38 or 20 μM oxaliplatin
Protocol: Immunofluorescence analysis was carried out essentially as in [47]. Cells grown on glass coverslips were fixed in 2 % paraformaldehyde, washed in TBST, permeabilized for 5 min (0.5 % Triton X-100 in TBST), blocked for 30 min in 5 % BSA in TBST, incubated with SLC1A1 primary antibody in TBST + 1 % BSA overnight at 4 °C, washed in TBST, and with Rhodamine-phalloidin and AlexaFluor488 conjugated secondary antibody (1:600 in TBS + 1 % BSA) for 1 h, followed by washing in TBST, and mounting in N-propyl-galleate mounting medium (2 % w/v in PBS/glycerol). DAPI was added for 3 min following incubation with the secondary antibody. Cells were visualized using the 60X/1.35 NA objective of an Olympus Bx63 epifluorescence microscope. […] Overlays were carried out using Adobe Photoshop software. No other image adjustment was performed.

[7] = SN38-resistant HCT116 cells, 0.8 μM SN38 or 20 μM oxaliplatin
[8] = oxaliplatin-resistant HCT116 cells, 0.8 μM SN38
[9] = parental HCT116 cells, 0.8 μM SN38 or 20 μM oxaliplatin

SMILES: CCc1c2c(nc3ccc(O)cc13)-c1cc3c(c(=O)n1C2)COC(=O)[C@]3(O)CC [SN38, 7-ethyl-10-hydroxycamptothecin]
- viability at 0.8 µM [1]: ~20%
- effect on cellular GSH levels [2]: slightly increased GSH levels
- p53 protein level [3, 7]: essentially no effect on p53 expression
- p53 protein level [3, 8]: only SN38 induced p53 and p21 expression
- p53 protein level [3, 9]: markedly induced
- p21 protein level [4, 7]: modestly increased p21 expression
- p21 protein level [4, 8]: only SN38 induced p53 and p21 expression
- p21 protein level [4, 9]: markedly induced
- PARP-1 cleavage [5]: induced by SN38 in parental and oxaliplatin-resistant, yet not in SN38-resistant, cells
- SLC1A1 subcellular localization [6]: marked shift in SLC1A1 localization towards the perinuclear/nuclear region
